According to patent US20120041035A1, “LEVAMLODIPINE COMPOUND PHARMACEUTICAL COMPOSITION” (SHIHUIDA PHARMACEUTICALS GROUP (JILIN) LTD, priority 2010, published 2012):

Test system: primary hypertension patients (systolic pressure ≧160 mmHg)
Assay: Clinical use in primary hypertension patients, 8-week treatment
Format: in vivo, human
Conditions: after 8-week treatment, levamlodipine 5.0 mg/d, chlorthalidone 25.0 mg/d; for Edema Incidence / Hypokalemia Incidence: combined 2.5 mg/d and 12.5 mg/d; for Decrease of Systolic Pressure: combined levamlodipine 2.5 mg/d and chlorthalidone 12.5 mg/d, 30 patients each
Protocol: The selected primary hypertension patients (with a systolic pressure ≧160 mmHg) were divided into 3 groups of 30 patients each, the levamlodipine group was given levamlodipine at 5.0 mg/d; the chlorthalidone group was given chlorthalidone at 25.0 mg/d; and the combined administration group was given levamlodipine at 2.5 mg/d and chlorthalidone at 12.5 mg/d. After 8-week treatment, the decease of the systolic pressure, the edema incidence, and the hypokalemia incidence were observed.

SMILES	Edema Incidence	Hypokalemia Incidence	Decrease of Systolic Pressure
CCOC(=O)C1=C(COCCN)NC(C)=C(C(=O)OC)[C@@H]1c1ccccc1Cl [Levamlodipine, 3-ethyl-5-methyl-2-(2-aminoethoxymethyl)-4-(2-chlorophenyl)-1,4-dihydro-6-methyl-3,5-pyridine dicarboxylate]	10%	0%	22.7 ± 7.8 mmHg
NS(=O)(=O)c1cc(C2(O)NC(=O)c3ccccc32)ccc1Cl (stereo not drawn) [Chlorthalidone, 5(2,3-dihydro-1-hydroxy-3-oxo-1H-isoindol-1-yl)-2-chlorobenzenesulfonamide]	0%	20.3%	20.5 ± 8.5 mmHg
